Data set [1] deals with Swiss-Webster male mice. The experiment in a line: Mouse Activity and Screen Test Procedure (MAST): screen test (ST). The class given is in vivo. The conditions noted are these: one hour postinjection. The text has this:
The compounds of the invention are new chemical substances which are useful as pharmaceutical agents for the treatment of psychoses. The antipsychotic activity of representative compounds of the invention was established by the Mouse Activity and Screen Test Procedrue (MAST) described below.
Nine unfasted Swiss-Webster male mice weighing 20-30 g equally divided into three groups for each drug dose to be tested. That is, data for each dose level was generated by three separated groups of three mice each.
A minimum of three dose levels (10, 30, and 100 mg/kg) are tested for each drug. Treatments are administered intraperitoneally one hour prior to testing. All dosages are calculated as parent compound and given in volumes of 10 ml/kg. Compounds are dissolved or suspended in 0.2% Methocel. Control animals are injected with Methocel.
Testing: A two part testing procedure is started one hour postinjection. First, the screen test (ST) is performed (see Pharmac. Biochem. Behav. 6, 351-353, 1977). Briefly this test consists of placing mice on individual wire screens which are then rotated 180 degrees at the start of a 60 second observation period. The number of mice falling off the inverted screen is recorded.
Data: The data obtained from the screen test are expressed as percent of mice falling off the screen. Data derived from locomotor activity of drug treated mice are compared to the activity of vehicle treated animals and are expressed as percent inhibition of spontaneous locomotion. All percentages reported for inhibition of locomotion (LI) are based upon data accumulated for one hour. Both phases of testing are graded: A=60-100%; G=31-59%; and N=0-30%. An overall dose rating is obtained by the following criteria:
LAD refers to the lowest dose at which an A rating is achieved. […] Utilizing this procedure, an overall dose rating of A was obtained for the noted compound at the indicated dose. The compounds are identified in the Examples.

The test system of data set [2] is conscious rat. The experiment in a line: Antihypertensive evaluation (AHP3): direct monitoring of aortic blood pressure and heart rate. The class given is in vivo. The text has this: This test procedure is described in the following paragraphs. A Method for the Direct Monitoring of Aortic Blood Pressure and Heart Rate from Conscious Rats The continuous monitoring of pulsatile blood pressure (BP) from unrestrained conscious rats surgically equipped with polyethylene cannulas was accomplished by means of a computer assisted data capture scheme (CADCS). The basic elements of the methodology are the cannulation procedure and the CADCS. Cannulation Procedure: Rats were anesthetized with Telazol (1:1 tiletamine HCI and zolazepam HCI); 20-40 mg/kg IM and the descending aorta exposed via a midline incision. Cannulas fabricated from polyethylene tubing were inserted into the aorta via an undersized puncture hole below the renal arteries. […] The cannulas, consisting of a PE100 (0.86 mm ID) body and a PE50 (0.58 mm ID) tip, were attached to a trocar, inserted through the psoas muscle, and passed subcutaneously along the midline of the back and externalized between the ears. The cannulas were anchored to the posas muscle and between the scaluale (3-0 green braided suture). The midline incision was closed in two steps (muscle first, skin second) using continuous over-and over sutures (4-0 chronic). Each rat was then given penicillin 30,000 units subcutaneously (Penicillin G Procaine Sterile Suspension). The rats were fitted with a harness-spring-swivel assembly designed to protect the cannula and to provide the rat relative freedom of movement. […] While on test, each rat received a continuous slow infusion of heparinized saline solution (approximately 400 I or 40 units of heparin per 24 hour period) to prevent clot formation. […] The data were first stored on the data concentrator disk and then transferred to a magnetic tape for analysis and report generation by the main research computer. The overall scheme involved modulating the primary signal from the pressure transducer, generating the primary data set of the one-minute values for systolic, diastolic, and mean blood pressures and heart rate by the in-lab microcomputer and the storage, analysis, and report generation by the main research computer. The transducers were connected to analog signal conditioning mocules. The modules provided a regulated excitation voltage for the transducers, amplification as required to interface the microprocessors and an active low pass filter to compensate for the pressure wave form distortion produced by the flexible, fluid filled, narrow cannula. […] The microcomputer controlled the sequential acqusition of data from the modular interface units through an internal synchronous time-of-day clock/time base generator. […] The microcomputer processed each blood pressure sample as it was received to produce "running average" values for heart rate, and mean, systolic and diastolic blood pressures.

Structures are written as SMILES.

For `COc1ccc2c(c1)C(Nc1ncnc3c1ncn3[C@@H]1O[C@H](CO)[C@@H](O)[C@H]1O)CCC2` (single isomer, unassigned) [Example 5, N6-[1-(7-Methoxy)-tetralinyl]-adenosine], the Screen test failure in data set [1] (1 mg/kg intraperitoneally) came to 0%; in data set [1] (3 mg/kg intraperitoneally), 11%; in data set [1] (10 mg/kg intraperitoneally) it was 11%. Further, the “change in HR (Heart Rate)” value in data set [2] (3 mg/kg, Hour 1, conscious rat) worked out at 0%.
Consider `OC[C@H]1O[C@@H](n2cnc3c(NC4CCCc5ccccc54)ncnc32)C(O)[C@@H]1O` (stereo in doubt) [Example 1, (R,S)-N^6-[1-Tetralinyl]-adenosine], for which the Screen test failure came to 0% in data set [1] (1 mg/kg intraperitoneally); 0% in data set [1] (3 mg/kg intraperitoneally); 22% in data set [1] (10 mg/kg intraperitoneally); 22% in data set [1] (30 mg/kg intraperitoneally); 99% in data set [1] (100 mg/kg intraperitoneally). In addition, the “change in HR (Heart Rate)” value in data set [2] (10 mg/kg, Hour 9, conscious rat) was found to be 0%.
In the case of `OC[C@H]1O[C@H](n2cnc3c(NC4CCCc5ccccc54)ncnc32)[C@H](O)[C@@H]1O` (stereo partly drawn) [Example 3, (S)-N^6-[1-Tetralinyl]-adenosine], the Screen test failure is given as 11% in data set [1] (0.1 mg/kg intraperitoneally); 0% in data set [1] (0.3 mg/kg intraperitoneally); 22% in data set [1] (1 mg/kg intraperitoneally); 0% in data set [1] (3 mg/kg intraperitoneally); 0% in data set [1] (10 mg/kg intraperitoneally); 11% in data set [1] (30 mg/kg intraperitoneally). Further, in data set [2] (10 mg/kg, Hour 5, conscious rat), the “change in HR (Heart Rate)” value is 0%.
In the case of `COc1ccc2c(c1)C(Nc1ncnc3c1ncn3[C@H]1O[C@H](CO)[C@@H](O)[C@H]1O)CCC2` (stereo partly drawn) [Example 9, (S)-N^6-(7-methoxy-1-tetralinyl)-adenosine], the results for the Screen test failure in data set [1] (3 mg/kg intraperitoneally), in data set [1] (10 mg/kg intraperitoneally) and in data set [1] (30 mg/kg intraperitoneally) were 11%, 0% and 11%, respectively. Also, in data set [2] (3 mg/kg, Hour 5, conscious rat), the “change in MAP (Mean Arterial Pressure)” value is reported as 9%.
With `OC[C@H]1O[C@@H](n2cnc3c(NC4CCCc5c(O)cccc54)ncnc32)[C@H](O)[C@@H]1O` (stereo partly shown) [Example 16, N^6-[1-(5-hydroxy)-tetralinyl]-adenosine], the Screen test failure in data set [1] (3 mg/kg intraperitoneally), in data set [1] (10 mg/kg intraperitoneally) and in data set [1] (30 mg/kg intraperitoneally) was 0% each time. The “change in HR (Heart Rate)” value in data set [2] (3 mg/kg, Hour 9, conscious rat) stood at 0%.

The record behind these values is patent EP0179667B1, “N6-substituted adenosines” (priority 1984, dated 1986).
